In patent US20240018121A1, “NOVEL HETEROAROMATIC COMPOUNDS EXHIBITING ANTIFUNGAL ACTIVITY AND THEIR METHOD OF USE” (FOX CHASE CHEMCIAL DIVERSITY CENTER, INC., priority 2020, published 2024):
Converted amounts (≈) assume the structure as drawn. Counter-ions that a name gives are not always drawn. Like-named read-outs stand apart in the source and are kept apart here.

Tests used:
Format in all cases: cell-based
[1] = system: Aspergillus flavus AFL1 (ATCC MYA-3631); assay: Fungal MIC Protocol, Aspergillus flavus; details: Aspergillus flavus, read-out: MIC Aspergillus flavus 3631
Procedure, shortened: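 The MIC against Aspergillus flavus was measured by broth microdilution in RPMI/MOPS medium at pH 7.0. Compounds were diluted to 200 ug/mL from DMSO stocks, then ten serial dilutions were tested in duplicate in round bottom 96-well plates. Spores adjusted to a final OD530 of 0.002 were added, with no-cell and no-compound control wells, and plates were incubated 48 hours at 35° C.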

[2] = system: Aspergillus fumigatus T33439 (ATCC MYA-3626); assay: Fungal MIC Protocol, Aspergillus fumigatus; details: Aspergillus fumigatus, read-out: MIC Aspergillus fumigatus 3626
Procedure, shortened: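 This broth microdilution MIC test used RPMI/MOPS medium at pH 7.0 with glucose. Compounds were diluted from DMSO stock to 200 ug/mL and serially diluted ten times in 96-well round bottom plates. Equal volumes of compound and Aspergillus spore suspension at OD530 0.002 were combined, with controls of compound without cells and spores without compound. Plates were bagged and incubated at 35° C. for 48 hours.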

[3] = system: Fusarium falciforme FS1 (ATCC MYA-3636); assay: Fungal MIC Protocol, Fusarium falciforme; details: Fusarium falciforme, read-out: MIC Fusarium falciforme 3636
Procedure, shortened: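 MIC against Fusarium falciforme was determined by broth microdilution in RPMI/MOPS medium containing glucose. Compounds started at 200 ug/mL and were serially diluted ten times, then combined with harvested spores adjusted to an OD530 of 0.005. Controls held compound without cells and spores without compound. Plates were bagged and incubated at 35° C. for 48 hours.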

[4] = system: Fusarium solani (ATCC 58877); assay: Fungal MIC Protocol, Fusarium solani; details: Fusarium solani, read-out: MIC Fusarium solani 58877
Procedure, shortened: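 Broth microdilution MIC test against Fusarium solani in RPMI/MOPS medium at pH 7.0. Compounds from DMSO stock were diluted to 200 ug/mL, then serially diluted ten times and plated in duplicate at 50 μl per well. 50 ul of spore suspension at OD530 0.005 was added. Controls had compound without cells and spores without compound. Plates were mixed gently, bagged, and incubated at 35° C. for 48 hours.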

[5] = system: Mucor circinelloides 1463(62) (ATCC 26759); assay: Fungal MIC Protocol, Mucor circinelloides (MIC-50); details: Mucor circinelloides, read-out: MIC-50 Mucorales circinelloides 26579
Procedure, shortened: (§1)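 Harvested spores, adjusted by OD530 to about 2×10^4 cfu/mL in RPMI/MOPS pH 7.0, are mixed with ten duplicate serial dilutions of compound. Incubation runs 48 h at 35° C before visual scoring of the lowest concentration inhibiting growth >50%.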

[6] = system: Mucor ramosissimus 057718 (ATCC 90286); assay: Fungal MIC Protocol, Mucor ramosissimus (MIC-50); details: Mucor ramosissimus, read-out: MIC-50 Mucorales ramosissimus 90286
Procedure, shortened: as §1

Candida albicans GDH2346 = assay: Candida Minimal Inhibitory Concentration (MIC); details: Candida albicans, read-out: MIC-50 Candida albicans GDH2346
Procedure, shortened: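 Twofold serial dilutions from 200 μg/mL in RPMI 1640/MOPS with glucose, pH 7.0, tested in duplicate against yeast from an OD600 1.0 suspension diluted 1:1000. Incubated at 35° C; OD600 read at 24 and 48 h.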

[7] = 100% growth inhibition at 48 hours
[8] = ATCC58877, 100% growth inhibition at 48 hours
[9] = ATCC26759, 50% growth inhibition at 48 hours
[10] = ATCC90286, 50% growth inhibition at 48 hours
[11] = GDH2346, 50% growth inhibition at 48 hours

SMILES | MIC [1, 7] [µg/mL] | MIC [2, 7] [µg/mL] | MIC [3, 7] [µg/mL] | MIC [4, 8] [µg/mL] | MIC50 [5, 9] [µg/mL] | MIC50 [6, 10] [µg/mL] | MIC50 (Candida albicans GDH2346; [11]) [µg/mL] | MIC ([1]; 48 h) [µg/mL] | MIC ([2]; 48 h) [µg/mL] | MIC ([3]; 48 h) [µg/mL] | MIC ([4]; ATCC58877, 48 h) [µg/mL] | MIC50 ([5]; ATCC26759, 48 h) [µg/mL] | MIC50 ([6]; ATCC90286, 48 h) [µg/mL] | MIC50 (Candida albicans GDH2346; GDH2346, 48 h) [µg/mL]
Cc1c(-c2ccc(C3=CCN(C(=N)N)CC3)cc2)nnn1-c1ccc(C2=CCN(C(=N)N)CC2)cc1 [Example 31, 4-(4-{1-[4-(1-Carbamimidoyl-1,2,3,6-tetrahydropyridin-4-yl)phenyl]-5-methyl-1H-1,2,3-triazol-4-yl}phenyl)-1,2,3,6-tetrahydropyridine-1-carboximidamide] | < 0.05 | < 0.05 | < 0.05 | < 0.05 | 0.78 (≈ 1.62 µM) | 1.56 (≈ 3.24 µM) | 0.1 (≈ 0.208 µM) | – | – | – | – | – | – | –
CNc1cc(C2=CCN(C(=N)N)CC2)cc(F)c1-c1nnc(-c2ccc(C3=CCN(C(=N)N)CC3)cc2)n1C [Example 23, 4-(4-(5-(4-(1-Carbamimidoyl-1,2,3,6-tetrahydropyridin-4-yl)-2-fluoro-6-(methylamino)phenyl)-4-methyl-4H-1,2,4-triazol-3-yl)phenyl)-5,6-dihydropyridine-1(2H)-carboximidamide] | 0.78 (≈ 1.48 µM) | 0.39 (≈ 0.738 µM) | 0.39 (≈ 0.738 µM) | 0.2 (≈ 0.378 µM) | 0.39 (≈ 0.738 µM) | 1.56 (≈ 2.95 µM) | 0.39 (≈ 0.738 µM) | – | – | – | – | – | – | –
N=C(N)N1CC=C(c2ccc(-c3nnc(-c4ccc(C5=CCN(C(=N)N)CC5)cc4)o3)cc2)CC1 [Example 41, 4-(4-{5-[4-(1-Carbamimidoyl-1,2,3,6-tetrahydropyridin-4-yl)phenyl]-1,3,4-oxadiazol-2-yl}phenyl)-1,2,3,6-tetrahydropyridine-1-carboximidamide] | 3.13 (≈ 6.68 µM) | 3.13 (≈ 6.68 µM) | 0.39 (≈ 0.832 µM) | 6.25 (≈ 13.3 µM) | 100 (≈ 213 µM) | 100 (≈ 213 µM) | 0.39 (≈ 0.832 µM) | – | – | – | – | – | – | –
Cn1c(-c2ccc(C3=CCN(C(=N)N)CC3)cc2)nnc1-c1ccc(C2=CCN(C(=N)N)CC2)cc1 [Example 1, 4,4-(4,4-(4-Methyl-4H-1,2,4-triazole-3,5-diyl)bis(4,1-phenylene))bis(5,6-dihydropyridine-1(2H)-carboximidamide)] | 0.1 (≈ 0.208 µM) | < 0.05 | < 0.05 | 0.78 (≈ 1.62 µM) | 0.2 (≈ 0.415 µM) | 0.78 (≈ 1.62 µM) | < 0.2 | – | – | – | – | – | – | –
CCn1c(-c2ccc(C3=CCN(C(=N)N)CC3)cc2F)nnc1-c1ccc(C2=CCN(C(=N)N)CC2)cc1F [Example 10, 4,4′-(4,4′-(4-Ethyl-4H-1,2,4-triazole-3,5-diyl)bis(3-fluoro-4,1-phenylene)) bis(5,6-dihydropyridine-1(2H)-carboximidamide)] | < 0.1 | < 0.1 | < 0.1 | < 0.1 | 0.78 (≈ 1.47 µM) | 1.56 (≈ 2.93 µM) | < 0.1 | – | – | – | – | – | – | –
Cc1cc(-c2cn(-c3ccc(C4=CCN(C(=N)N)CC4)cc3)nn2)ccc1C1=CCN(C(=N)N)CC1 [Example 37, 4-(4-(4-(4-(1-Carbamimidoyl-1,2,3,6-tetrahydropyridin-4-yl)-3-methylphenyl)-1H-1,2,3-triazol-1-yl)phenyl)-5,6-dihydropyridine-1(2H)-carboximidamide] | 0.2 (≈ 0.415 µM) | 0.39 (≈ 0.81 µM) | 0.39 (≈ 0.81 µM) | 0.39 (≈ 0.81 µM) | 0.39 (≈ 0.81 µM) | 6.25 (≈ 13 µM) | 0.78 (≈ 1.62 µM) | – | – | – | – | – | – | –
Cn1c(-c2ccc(C3=CCN(C(=N)N)CC3)cc2F)nnc1-c1ccc(C2=CCN(C(=N)N)CC2)cc1F [Example 8, 4,4′-(4,4′-(4-Methyl-4H-1,2,4-triazole-3,5-diyl)bis(3-fluoro-4,1-phenylene)) bis(5,6-dihydropyridine-1(2H)-carboximidamide)] | 0.05 (≈ 0.0966 µM) | 0.05 (≈ 0.0966 µM) | 0.006 (≈ 0.0116 µM) | 0.05 (≈ 0.0966 µM) | 0.2 (≈ 0.386 µM) | 0.39 (≈ 0.753 µM) | 0.1 (≈ 0.193 µM) | – | – | – | – | – | – | –
COCCn1c(-c2ccc(C3=CCN(C(=N)N)CC3)cc2)nnc1-c1ccc(C2=CCN(C(=N)N)CC2)cc1 [Example 67, 4-(4-{5-[4-(1-carbamimidoyl-1,2,3,6-tetrahydropyridin-4-yl)phenyl]-4-(2-methoxyethyl)-4H-1,2,4-triazol-3-yl}phenyl)-1,2,3,6-tetrahydropyridine-1-carboximidamide trifluoroacetate] | – | – | – | – | – | – | – | 0.1 | 0.1 | 0.05 | 0.05 | 0.39 | 1.56 | 0.2
CCCCCCCCn1c(-c2ccc(C3=CCN(C(=N)N)CC3)cc2F)nnc1-c1ccc(C2=CCN(C(=N)N)CC2)cc1F [Example 11, 4,4′-(4,4′-(4-Octyl-4H-1,2,4-triazole-3,5-diyl)bis(3-fluoro-4,1-phenylene))bis(5,6-dihydropyridine-1(2H)-carboximidamide)] | 0.78 (≈ 1.27 µM) | 0.39 (≈ 0.633 µM) | 0.2 (≈ 0.325 µM) | 0.2 (≈ 0.325 µM) | 1.56 (≈ 2.53 µM) | 3.13 (≈ 5.08 µM) | 1.56 (≈ 2.53 µM) | – | – | – | – | – | – | –
Cn1c(-c2ccc(C3=CCN(C(=N)N)C3)cc2)nnc1-c1ccc(C2=CCN(C(=N)N)C2)c(C(F)(F)F)c1 [Example 27, 3-(4-(5-(4-(1-Carbamimidoyl-2,5-dihydro-1H-pyrrol-3-yl)-3-(trifluoromethyl)phenyl)-4-methyl4H-1,2,4-triazol-3-yl)phenyl)-2,5-dihydro-1H-pyrrole-1-carboximidamide] | 0.39 (≈ 0.748 µM) | < 0.1 | < 0.1 | 0.2 (≈ 0.383 µM) | 0.78 (≈ 1.5 µM) | 6.25 (≈ 12 µM) | 0.39 (≈ 0.748 µM) | – | – | – | – | – | – | –
Cn1c(-c2ccc(C3=CCN(C(=N)N)CC3)c(F)c2)nnc1-c1ccc(C2=CCN(C(=N)N)CC2)c(F)c1 [Example 19, 4,4′-(4,4-(4-Methyl-4H-1,2,4-triazole-3,5-diyl)bis(2-fluoro-4,1-phenylene)) bis(5,6-dihydropyridine-1(2H)-carboximidamide)] | 0.03 (≈ 0.058 µM) | 0.01 (≈ 0.0193 µM) | 0.01 (≈ 0.0193 µM) | 0.03 (≈ 0.058 µM) | 0.1 (≈ 0.193 µM) | 0.2 (≈ 0.386 µM) | 0.1 (≈ 0.193 µM) | – | – | – | – | – | – | –
CCn1c(-c2ccc(C3=CCN(C(=N)N)CC3)cc2)nnc1-c1ccc(C2=CCN(C(=N)N)CC2)cc1 [Example 2, 4,4′-(4,4′-(4-Ethyl-4H-1,2,4-triazole-3,5-diyl)bis(4,1-phenylene)) bis(5,6-dihydropyridine-1(2H)-carboximidamide)] | < 0.1 | 0.2 (≈ 0.404 µM) | < 0.1 | < 0.1 | > 100 | > 100 | < 0.024 | – | – | – | – | – | – | –
